Key:
[1] = system: TNFα production in rat whole blood; test: TNFα production inhibitory action evaluation test (LPS stimulation ex vivo, ELISA); format: cell-based; settings: 20 hours, 200 μM test compound solution 10 μL/well, DEX treated group = 100, read-out: TNFα production inhibitory ratio (% DEX)
In short: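 Pooled heparinized rat whole blood preincubated 1 h at 37 °C, compound added for 1 h (solution prepared at 200 μM), then LPS (2 μg/mL solution) and culture for 20 h. Supernatant TNFα by ELISA; inhibition normalized to LPS and unstimulated controls, then expressed as Efficacy (% DEX).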

[2] = system: VEGF-induced retinal elevated vascular permeability model of rabbits; test: Retinal vascular permeability model evaluation test; format: in vivo, rabbit; settings: 2% 50 μL/base agent A, intravitreal once
Method: In order to evaluate the inhibitory effect of the present compounds on VEGF-induced retinal vascular permeability, the inhibitory effect of the present compound on retinal vascular permeability in a VEGF-induced retinal elevated vascular permeability model of rabbits was evaluated. Incidentally, this effect was evaluated by calculating a leaked amount of the fluorescent dye of the base agent administered group (non-induced group), a leaked amount of the fluorescent dye of the base agent administered group (control group) and a leaked amount of the fluorescent dye of the test compound administered group.
To the test compound was added 0.01% Polysorbate 80/0.5% sodium carboxymethyl cellulose/PBS (hereinafter referred to as “base agent A”.), whereby 2% (W/V) or 8% (W/V) of the test compound suspension was prepared. Or else, to the test compound was added PEG400 (hereinafter referred to as “base agent B”.), whereby 6% (W/W) of the test compound solution was prepared.
VEGF solution: humanVEGF165 was dissolved in PBS to prepare 50 μg/mL of VEGF solution.
• 1) A mixed solution (1 mL/kg) of 5% ketamine hydrochloride injection solution and 2% xylazine hydrochloride injection solution with the ratio of 7:1 was intramuscularly administered to rabbits (Dutch male rabbits), and the rabbits were anesthetized. • 2) Tropicamide-phenylephrine hydrochloride ophthalmic solution (trade name: Midlin P) was eye dropped to maintain pupillary mydriasis, and then, the VEGF solution was intravitreally administered. Incidentally, PBS was intravitreally administered to the base agent administration group (non-induced group). • 3) Fluorescein was intravenously administered 2 days after intravitreal administration of VEGF. Two hours after the intravenous administration of fluorescein, an amount of the leaked fluorescent dye in the vitreous body was measured by using a fluorophotometer. (Test Method) • 1) One week before or 4 weeks before VEGF-induction, 50 μL of the test compound suspension (prepared by the base agent A) was intravitreally administered once, or 5 μL of the test compound solution (prepared by the base agent B) was intravitreally administered once. Incidentally, in the base agent administered group (non-induced group) and the base agent administered group (control group), the base agent A was used in place of the test compound suspension, or the base agent B was used in place of the test compound solution. • 2) Inhibition ratio of elevated retinal vascular permeability was calculated according to the following calculation formula. (Calculation Formula) Inhibitory ratio (%) on elevated retinal vascular permeability of the test compound administered group=100×{1−(average value of a leaked fluorescent dye amount in the test compound administered group−average value of a leaked fluorescent dye amount in the base agent administered group (non-induced group))/(average value of a leaked fluorescent dye amount in the base agent administered group (control group)−average value of a leaked fluorescent dye amount of the base agent administered group (non-induced group))}

SMILES	Emax [1]	Inhibitory ratio (%) on elevated vascular permeability ([2]; 1 week before VEGF induction)	Inhibitory ratio (%) on elevated vascular permeability ([2]; 4 weeks before VEGF induction)
COc1cc(OC[C@@H](O)CCO)ccc1-c1ccc2c(c1COc1cc(F)ccc1C)N(C)C(=O)C(C)(C)N2 [Compound 2-1, (S)-7-[4-(2,4-dihydroxybutyl)oxy-2-methoxyphenyl]-8-(5-fluoro-2-methyl-phenoxymethyl)-1,3,3-trimethyl-3,4-dihydro-1H-quinoxalin-2-one]	97%		
COc1ccc(CO)cc1-c1ccc2c(c1COc1cc(F)ccc1C)N(C)C(=O)C(C)(C)N2 [Control compound B, 8-(5-fluoro-2-methylphenoxymethyl)-7-(5-hydroxymethyl-2-methoxyphenyl)-1,3,3-trimethyl-3,4-dihydro-1H-quinoxalin-2-one, reference compound]	77%		
COc1cc(OC[C@@H](O)CC#N)ccc1-c1ccc2c(c1COc1cc(F)ccc1C)N(C)C(=O)C(C)(C)N2 [Compound 5-2, (S)-7-[4-(3-cyano-2-hydroxypropyl)oxy-2-methoxyphenyl]-8-(5-fluoro-2-methyl-phenoxymethyl)-1,3,3-trimethyl-3,4-dihydro-1H-quinoxalin-2-one]	> 99%	96%	91%
COCOc1ccc(-c2ccc3c(c2COc2cc(F)ccc2C)N(C)C(=O)C(C)(C)N3)c(OC)c1 [Control compound F, 8-(5-fluoro-2-methylphenoxymethyl)-7-(2-methoxy-4-methoxymethoxyphenyl)-1,3,3-trimethyl-3,4-dihydro-1H-quinoxalin-2-one, reference compound]	69%		
CCCC(=O)Oc1ccc(-c2ccc3c(c2COc2cc(F)ccc2C)N(C)C(=O)C(C)(C)N3)c(OC)c1 [Control compound D, 7-(4-butyryloxy-2-methoxyphenyl)-8-(5-fluoro-2-methylphenoxymethyl)-1,3,3-trimethyl-3,4-dihydro-1H-quinoxalin-2-one, reference compound]			38%
COc1ccc(-c2ccc3c(c2COc2cc(F)ccc2C)N(C)C(=O)C(C)(C)N3)c(OC)c1 [Control compound E, 7-(2,4-dimethoxyphenyl)-8-(5-fluoro-2-methyl-phenoxymethyl)-1,3,3-trimethyl-3,4-dihydro-1H-quinoxalin-2-one, reference compound]	0%	47%	
COc1cc(OC[C@H](C)O)ccc1-c1ccc2c(c1COc1cc(F)ccc1C)N(C)C(=O)C(C)(C)N2 [Compound 1-1, (S)-8-(5-fluoro-2-methylphenoxymethyl)-7-[4-(2-hydroxypropyl)oxy-2-methoxy-phenyl]-1,3,3-trimethyl-3,4-dihydro-1H-quinoxalin-2-one]	81%		

From patent publication US10189796B2, “[4-(1,3,3-trimethyl-2-oxo-3,4-dihydro-1H-quinoxalin-7-yl)phenoxy]ethyloxy compound or salt thereof” (SANTEN PHARMACEUTICAL CO., LTD., priority 2015, dated 2019)
